Source: US8568763B2, “Compositions and coatings for delivery of therapeutic agents” (The University of Tennessee Research Foundation, priority 2004, dated 2013)

How the values were obtained:
[1] = 90 days, rapamycin-eluting stents, Carter et al; cited from earlier work
[2] = blood of patients prophylaxed against kidney transplant rejection; cited from earlier work
in vivo = settings: pig
Description: Preimplantation and postexplantation grafts, blood and tissues were sent to the HPLC Drug Monitoring Laboratory at the University of Texas Medical School at Houston, (6431 Fannin, Suite 6.233, Houston Tex. 77030) for rapamycin level quantification. Analyses were performed using HPLC/UV assays developed by Dr Kimberly L. Napoli, the director of the laboratory (Napoli et al., “Distribution of Sirolimus in Rat Tissue,” Clin. Biochem. 30:135-42 (1997), which is hereby incorporated by reference in its entirety). Whole blood was collected on the first three postoperative days and at euthanasia to quantitate systemic exposure to rapamycin. To confirm elution of rapamycin from the ePTFE and deposition of drug in the native arterial wall, explanted grafts and adjacent iliac artery were snap frozen in liquid nitrogen. The tissues were packaged on dry ice and sent for rapamycin quantification. The kinetics of elution were extrapolated by sacrificing nine animals (n=3 per time point) on postoperative day 7, 14 and 28. These animals were separate from the twenty-two animals used to evaluate for changes in neointimal hyperplasia.
Similar drug levels were detected despite sterilization. Similarly, the rapamycin fraction was detected 18 minutes after instilling the sample onto the HPLC column irrespective of sterilization. […] Levels decreased from 1000 μg preimplatation to 26.7 μg at one week post explantation. Drug (2.9 μg/gm) was detected in the adjacent arterial wall on postoperative day 7 and persisted until euthanasia.

CO[C@H]1C[C@@H]2CC[C@@H](C)[C@@](O)(O2)C(=O)C(=O)N2CCCC[C@H]2C(=O)O[C@H]([C@H](C)C[C@@H]2CC[C@@H](O)[C@H](OC)C2)CC(=O)[C@H](C)/C=C(\C)[C@@H](O)[C@@H](OC)C(=O)[C@H](C)C[C@H](C)/C=C/C=C/C=C/1C [Rapamycin, rapamycin]
Rapamycin in the arterial wall [1]: 0.32 ng/mg | current therapeutic rapamycin level [2]: 8 to 17 ng/mL | concentration at 1 day (in vivo; mongrel): 9.3 ± 0.2 ng/mL | concentration at 2 day (in vivo; mongrel): 2 ± 0.1 ng/mL | concentration at 3 day (in vivo; mongrel): 1.9 ± 0.2 ng/mL | Rapamycin level in artery (in vivo; mongrel, 7 day): 2.9 ± 0.8 μg/gm | Rapamycin level in graft (in vivo; mongrel, 14 day): 12.8 ± 5.0 µg | Rapamycin level in graft (in vivo; mongrel, 28 day): 0.005 ± 0.001 µg | Detection of rapamycin in blood (in vivo): not detectable | Elution of rapamycin off grafts (in vivo): majority of rapamycin eluted off grafts by one week | concentration at 7 day (in vivo): 2900 ng/g | concentration at 28 day (in vivo): 25 ng/g
